Assay results taken from US11926584B2, “Methods of making bempedoic acid and compositions of the same” (Esperion Therapeutics, Inc., priority 2019, dated 2024).

Columns and labels:
[1] = Dynamic vapor sorption (water sorption) of the crystalline form; type: physicochemical; conditions: relative humidity of 80%, temperature of 25° C., isotherm in FIG. 6
Procedure: The crystalline form of the compound of formula (V) may also be characterized according to its water sorption properties. […] In certain embodiments, the crystalline form of the compound of formula (V) has a water sorption isotherm, when measured at 25° C., substantially the same as shown in FIG. 6.

[2] = Thermogravimetric analysis (TGA) of the crystalline form; type: physicochemical; conditions: heated at 10° C./minute from ambient (~25° C.) to about 315° C., open platinum pans
Procedure: Thermogravimetric analysis (TGA) data for the crystalline form of the compound of formula (V) were collected using a TA Discovery 550 TGA instrument. The TGA instrument was calibrated using a nickel reference standard. Samples of the crystalline form of the compound of formula (V) were placed in open platinum sample pans and heated at a rate of 10° C./minute from about ambient temperature (˜25° C.) to about 315° C.

change in mass, as determined by dynamic vapor sorption [1]: about 0.03%
Structure (SMILES): CC(C)(CCCCCC(O)CCCCCC(C)(C)C(=O)O)C(=O)O [compound of formula (V), 8-hydroxy-2,2,14,14-tetramethylpentadecanedioic acid]
weight loss in TGA curve [2]: negligible weight loss prior to decomposition
